Organism: Rattus norvegicus
Test: Open TG-GATES - Regimen: Single
Format: toxicity, organism-based, Sprague-Dawley
Set-up: regimen Single, gender Male, age 6 weeks
Conditions: in vivo, iv, route intravenous injection; for Bas / Eos / Fbg / Lym / MCH / MCHC / MCV / Mono / Neu / PT / Plat / RBC / Ret / WBC / APTT / Hb / Ht: tissue Blood; for KIDNEY_L / KIDNEY_R / KIDNEY_TOTAL: tissue Kidney; for LIVER: tissue Liver; for ALP / ALT / AST / BUN / CRE / DBIL / GLC / IP / K / PL / RALB / TBIL / TC / TG / TP / gamma-GTP / LDH / Na: tissue Plasma
[1] = 0 mg/kg, 3 h, dose level Control
[2] = 0 mg/kg, 6 h, dose level Control
[3] = 0 mg/kg, 9 h, dose level Control
[4] = 0 mg/kg, 24 h, dose level Control

## CARBOPLATIN
[1]
  TERMINAL_BW: 198.4 g
  Bas: 0%
  Eos: 0.4%
  Fbg: 277.4 mg/dL
  Lym: 80%
  MCH: 21.1 pg
  MCHC: 32.1%
  MCV: 65.9 fL
  Mono: 2.2%
  Neu: 16.2%
  PT: 16 s
  Plat: 125.4 x10_4/uL
  RBC: 633.2 x10_4/ul
  Ret: 6.4%
  WBC: 107.8 x10_2/uL
  KIDNEY_L: 0.9 g
  KIDNEY_R: 0.9 g
  KIDNEY_TOTAL: 1.8 g
  LIVER: 9.1 g
  ALP: 1848.6 IU/L
  ALT: 47 IU/L
  AST: 86.2 IU/L
  BUN: 13.6 mg/dL
  CRE: 0.2 mg/dL
  DBIL: 0 mg/dL
  GLC: 197.2 mg/dL
  IP: 8.3 mg/dL
  K: 3.9 meq/L
  PL: 127.8 mg/dL
  RALB: 3 g/dL
  TBIL: 0.012 mg/dL
  TC: 71.8 mg/dL
  TG: 43 mg/dL
  TP: 5.5 g/dL
  gamma-GTP: 1.2 IU/L
[2]
  TERMINAL_BW: 200.5 g
  APTT: 24.3 s
  Bas: 0%
  Eos: 0.8%
  Fbg: 274.2 mg/dL
  Lym: 80.8%
  MCV: 64 fL
  Mono: 2.6%
  Neu: 15.4%
  PT: 16.1 s
  Plat: 119.1 x10_4/uL
  RBC: 645.6 x10_4/ul
  Ret: 6.5%
  WBC: 98 x10_2/uL
  KIDNEY_L: 0.9 g
  KIDNEY_R: 0.9 g
  KIDNEY_TOTAL: 1.8 g
  LIVER: 8.5 g
  ALP: 1354.4 IU/L
  AST: 77 IU/L
  BUN: 11.4 mg/dL
  CRE: 0.2 mg/dL
  DBIL: 0 mg/dL
  GLC: 180.6 mg/dL
  IP: 9.3 mg/dL
  K: 4.4 meq/L
  LDH: 202.4 IU/L
  PL: 128 mg/dL
  RALB: 2.9 g/dL
  TBIL: 0.01 mg/dL
  TC: 74.2 mg/dL
  TG: 74.2 mg/dL
  TP: 5.3 g/dL
  gamma-GTP: 1.4 IU/L
[3]
  TERMINAL_BW: 195.2 g
  APTT: 24.6 s
  Bas: 0%
  Eos: 0.6%
  Fbg: 296.4 mg/dL
  Hb: 13 g/dL
  Lym: 77.2%
  MCHC: 31.9%
  MCV: 64.4 fL
  Mono: 2%
  Neu: 19.8%
  PT: 16 s
  Plat: 121.6 x10_4/uL
  RBC: 635.2 x10_4/ul
  Ret: 6.3%
  WBC: 80.5 x10_2/uL
  KIDNEY_L: 0.9 g
  KIDNEY_R: 0.9 g
  KIDNEY_TOTAL: 1.8 g
  LIVER: 8.2 g
  ALP: 1521.4 IU/L
  ALT: 38.8 IU/L
  AST: 75.2 IU/L
  CRE: 0.2 mg/dL
  DBIL: 0 mg/dL
  GLC: 182.2 mg/dL
  IP: 9.7 mg/dL
  K: 4.3 meq/L
  LDH: 155 IU/L
  Na: 140.4 meq/L
  PL: 123.6 mg/dL
  RALB: 2.9 g/dL
  TBIL: 0.008 mg/dL
  TC: 72.4 mg/dL
  TG: 57.2 mg/dL
  TP: 5.3 g/dL
  gamma-GTP: 1 IU/L
[4]
  TERMINAL_BW: 214.9 g
  APTT: 23.2 s
  Bas: 0%
  Eos: 1%
  Fbg: 280.2 mg/dL
  Lym: 82.8%
  MCHC: 32.1%
  MCV: 63 fL
  Mono: 2.4%
  PT: 16.6 s
  Plat: 124.1 x10_4/uL
  RBC: 648.4 x10_4/ul
  Ret: 5.2%
  WBC: 108.2 x10_2/uL
  KIDNEY_L: 1 g
  KIDNEY_R: 1 g
  KIDNEY_TOTAL: 2 g
  LIVER: 9.7 g
  ALP: 1592.8 IU/L
  ALT: 42.2 IU/L
  AST: 73 IU/L
  BUN: 16.6 mg/dL
  CRE: 0.2 mg/dL
  DBIL: 0 mg/dL
  GLC: 183 mg/dL
  IP: 7.2 mg/dL
  K: 4.5 meq/L
  LDH: 175 IU/L
  Na: 140.4 meq/L
  PL: 133.4 mg/dL
  RALB: 2.9 g/dL
  TBIL: 0.006 mg/dL
  TC: 69.6 mg/dL
  TG: 84.4 mg/dL
  TP: 5.4 g/dL
  gamma-GTP: 1.2 IU/L
10 mg/kg, 3 h, dose level Low
  TERMINAL_BW: 205.7 g
  Bas: 0%
  Eos: 1%
  Fbg: 269.2 mg/dL
  Hb: 12.9 g/dL
  Lym: 80.4%
  MCH: 21.1 pg
  MCHC: 32%
  MCV: 66 fL
  Mono: 2.4%
  PT: 15.4 s
  Plat: 126.7 x10_4/uL
  RBC: 612.6 x10_4/ul
  Ret: 6.2%
  WBC: 92.7 x10_2/uL
  KIDNEY_L: 1 g
  KIDNEY_R: 0.9 g
  KIDNEY_TOTAL: 1.9 g
  LIVER: 9.7 g
  ALP: 1526 IU/L
  ALT: 43.6 IU/L
  AST: 85.4 IU/L
  CRE: 0.2 mg/dL
  DBIL: 0.002 mg/dL
  GLC: 185 mg/dL
  IP: 7.9 mg/dL
  K: 3.9 meq/L
  LDH: 228.2 IU/L
  PL: 124.8 mg/dL
  RALB: 2.9 g/dL
  TBIL: 0.016 mg/dL
  TC: 68.4 mg/dL
  TG: 55.2 mg/dL
  TP: 5.2 g/dL
  gamma-GTP: 1.2 IU/L
10 mg/kg, 6 h, dose level Low
  TERMINAL_BW: 204.9 g
  APTT: 24.2 s
  Bas: 0%
  Eos: 1%
  Fbg: 286.8 mg/dL
  Ht: 41.2%
  Lym: 77.6%
  MCH: 20.6 pg
  MCHC: 32.2%
  MCV: 64 fL
  Mono: 2.8%
  Neu: 17.8%
  PT: 15.9 s
  Plat: 131 x10_4/uL
  RBC: 643.6 x10_4/ul
  Ret: 6.3%
  WBC: 115.8 x10_2/uL
  KIDNEY_L: 1 g
  KIDNEY_R: 1 g
  KIDNEY_TOTAL: 2 g
  LIVER: 9.1 g
  ALP: 1291.4 IU/L
  ALT: 43.4 IU/L
  BUN: 10 mg/dL
  CRE: 0.2 mg/dL
  DBIL: 0 mg/dL
  GLC: 180.6 mg/dL
  IP: 9.1 mg/dL
  K: 4.3 meq/L
  LDH: 174.2 IU/L
  PL: 134.6 mg/dL
  RALB: 3 g/dL
  TBIL: 0.016 mg/dL
  TC: 72.8 mg/dL
  TG: 76.2 mg/dL
  TP: 5.5 g/dL
  gamma-GTP: 1.6 IU/L
10 mg/kg, 9 h, dose level Low
  TERMINAL_BW: 197.5 g
  APTT: 25.3 s
  Bas: 0%
  Eos: 1%
  Fbg: 294.6 mg/dL
  Ht: 40.2%
  Lym: 73%
  MCHC: 32.6%
  Mono: 2.4%
  Neu: 23.4%
  PT: 15.7 s
  Plat: 131.4 x10_4/uL
  RBC: 644.2 x10_4/ul
  Ret: 5.7%
  WBC: 86.3 x10_2/uL
  KIDNEY_L: 0.9 g
  KIDNEY_R: 0.9 g
  KIDNEY_TOTAL: 1.8 g
  LIVER: 8 g
  ALP: 1344 IU/L
  ALT: 37.4 IU/L
  AST: 77 IU/L
  BUN: 11.2 mg/dL
  CRE: 0.2 mg/dL
  DBIL: 0 mg/dL
  GLC: 177.8 mg/dL
  IP: 9.3 mg/dL
  K: 4.4 meq/L
  LDH: 180.2 IU/L
  Na: 140 meq/L
  PL: 121 mg/dL
  RALB: 2.9 g/dL
  TBIL: 0.012 mg/dL
  TC: 71.8 mg/dL
  TG: 44.6 mg/dL
  TP: 5.3 g/dL
  gamma-GTP: 1.4 IU/L
10 mg/kg, 24 h, dose level Low
  TERMINAL_BW: 204.3 g
  APTT: 23.3 s
  Bas: 0%
  Eos: 0.6%
  Fbg: 298.2 mg/dL
  Ht: 40.6%
  Lym: 80.2%
  MCHC: 32.1%
  MCV: 63.8 fL
  Mono: 2.8%
  PT: 16.6 s
  Plat: 122.3 x10_4/uL
  RBC: 637.8 x10_4/ul
  Ret: 4.7%
  WBC: 78.9 x10_2/uL
  KIDNEY_L: 0.9 g
  KIDNEY_R: 1 g
  KIDNEY_TOTAL: 1.9 g
  LIVER: 9 g
  ALP: 1748.8 IU/L
  AST: 69.8 IU/L
  BUN: 15.6 mg/dL
  CRE: 0.2 mg/dL
  DBIL: 0 mg/dL
  GLC: 180.8 mg/dL
  IP: 7.2 mg/dL
  K: 4.5 meq/L
  LDH: 208.6 IU/L
  PL: 140.6 mg/dL
  RALB: 3.1 g/dL
  TBIL: 0.006 mg/dL
  TC: 74.2 mg/dL
  TG: 75.6 mg/dL
  TP: 5.5 g/dL
  gamma-GTP: 1.6 IU/L
30 mg/kg, 3 h, dose level Middle
  TERMINAL_BW: 205.5 g

From ChEMBL document CHEMBL3885861, “Open TG-GATES”
